Reference: US10695299B2, “Disulfiram formulation” (UNIVERSITY OF WOLVERHAMPTON, priority 2015, dated 2020)

Assays:
[1] = format: in vitro ADME; details: horse, 100 μg/ml
Experimental: The eppendoff tubes were collected and protein was precipitated by the addition of 300 μl of absolute methanol at different time intervals. The supernatant was then subjected to HPLC measurement.
The free disulfiram was rapidly degraded in the serum to undetectable levels within 30 seconds (FIG. 1E). In contrast, disulfiram commenced its release from PLGA nanoparticles at 2 min which was equivalent to 34.23±3.38% of the initial drug loading and peaked in 4 min at 51.27±5.98% of the initial drug loading. The controlled release lasted for at least 24 hours. […] Importantly, after 4 hours incubation, the disulfiram concentration in the serum still remained at ˜90 μM which is markedly higher than the IC50s of disulfiram in a wide range of cancer types (˜50-500 nM).

[2] = cited from earlier work
[3] = test system: a wide range of cancer types; details: read-out: IC50s of disulfiram; cited from earlier work
Huh7 HCC cell line = test: MTT cytotoxicity assay and CI-isobologram, Huh7; format: cell-based; details: for IC50: Homo sapiens, Huh-7, Huh7, 72 h, single drug; for combinational effect with Disulfiram-PLGA (CI-isobologram): Huh7, Cu 1 μM; for sensitivity of cells at hypoxic condition: Huh7, hypoxic versus normoxic culture, 72 h
Experimental: (§1) The PLC/PRF/5 and Huh7 HCC cell lines were cultured in DMEM (Lonza, Wokingham, UK) supplemented with 10% FCS, 50 units/ml penicillin, 50 μg/ml streptomycin.
(§2) The IC50s from single and two-drug-treated cells were detected. […] The combination index (CI) was determined by mutually exclusive equations.

PLC/PRF/5 HCC cell line = test: MTT cytotoxicity assay and CI-isobologram, PLC/PRF/5; format: cell-based; details: for IC50: Homo sapiens, PLC/PRF/5, 72 h, single drug; for combinational effect with Disulfiram-PLGA (CI-isobologram): PLC/PRF/5, Cu 1 μM; for sensitivity of cells at hypoxic condition: PLC/PRF/5, hypoxic versus normoxic culture, 72 h
Experimental: as §1, §2

PLC/PRF/5 cells = test: Clonogenic assay, PLC/PRF/5; format: cell-based; details: 6 h exposure, 10 days culture, 5-FU 200 μM, Sorafenib 20 μM, CuCl2 1 μM, disulfiram-PLGA 200 nM
Experimental: (§3) […] The cells were collected and sub-cultured in 6-well plates containing drug-free medium at a cell density of 10^3/well. After 10 days culture, the clonogenic cells were determined by counting the colonies containing at least 50 cells.
(§4) The treated cells were collected and sub-cultured in 6-well plates containing drug-free medium at a cell density of 500 cells/well for another 10 days.

Huh7 cells = test: Clonogenic assay, Huh7; format: cell-based; details: 6 h exposure, 10 days culture, 5-FU 200 μM, Sorafenib 20 μM, CuCl2 1 μM, disulfiram-PLGA 200 nM
Experimental: as §3, §4

PLC/PRF/5 xenografts = test: Liver cancer xenograft experiments; format: in vivo, BALB/c Nu/Nu athymic nude mice; details: copper alone (CuGlu 6 mg/kg p.o.)
Experimental: PLC/PRF/5 cells (5×10^5) were subcutaneously injected at one front flank of the mice. When the tumor volume reached ˜200 mm^3, the tumor bearing mice were randomly subdivided into 6 groups (8 mice/group) e.g. control, CuGlu 6 mg/kg p.o., empty nanoparticles+CuGlu 6 mg/kg p.o., PLGA-disulfiram 2.5 mg/kg i.v.+CuGlu 6 mg/kg p.o., PLGA-disulfiram 5 mg/kg i.v.+CuGlu 6 mg/kg p.o., PLGA-disulfiram 10 mg/kg i.v.+CuGlu 6 mg/kg p.o. The drugs were administered 3 times/week for successive 3 weeks.
Five-week-old female BALB/c Nu/Nu athymic nude mice (Biotechology & Cell Biology Shanghai, China) were housed under pathogen-free conditions. PLC/PRF/5 cells (5×10^5) were subcutaneously injected at one front flank of the mice. When the tumour volume (V) reached ˜200 mm^3, the tumour bearing mice were randomly subdivided into 6 groups (8 mice/group) and treated 3 times/week e.g. control; copper gluconate (CuGlu) 6 mg/kg p.o., empty nanoparticles+CuGlu 6 mg/kg p.o., PLGA-disulfiram 2.5 mg/kg i.v.+CuGlu 6 mg/kg p.o.; PLGA-disulfiram 5 mg/kg i.v.+CuGlu 6 mg/kg p.o., PLGA-disulfiram 10 mg/kg i.v.+CuGlu 6 mg/kg p.o. The tumour volume was calculated by the following formula: V=(L×W^2)×0.5, where L is the length and W is the width of the tumour. The xenograft size was observed and recorded trice per week for 3 weeks. The animals were sacrificed after three weeks. […]

CCN(CC)C(=S)SSC(=S)N(CC)CC [free disulfiram, Disulfiram]
time to degradation to undetectable levels in serum [1]: ≤ 30 s | previously published half-life data [2]: 4 min | IC50 [3]: 0.05 to 0.5 µM

O=c1[nH]cc(F)c(=O)[nH]1 [5-FU, 5-fluorouracil]
IC50 (Huh7 HCC cell line): 103 µM | combinational effect with Disulfiram-PLGA (CI-isobologram) (Huh7 HCC cell line): very significant synergistic | sensitivity of cells at hypoxic condition (Huh7 HCC cell line): significantly resistant | IC50 (PLC/PRF/5 HCC cell line): 123 µM | combinational effect with Disulfiram-PLGA (CI-isobologram) (PLC/PRF/5 HCC cell line): very significant synergistic | sensitivity of cells at hypoxic condition (PLC/PRF/5 HCC cell line): significantly resistant | colony numbers versus control (PLC/PRF/5 cells): no significant difference | colony numbers versus control (Huh7 cells): no significant difference

[Cl][Cu][Cl] [CuCl2, copper(II) chloride]
colony numbers versus control (PLC/PRF/5 cells): no significant difference | colony numbers versus control (Huh7 cells): no significant difference

copper gluconate
effect on tumor growth (PLC/PRF/5 xenografts): no effect

CNC(=O)c1cc(Oc2ccc(NC(=O)Nc3ccc(Cl)c(C(F)(F)F)c3)cc2)ccn1 [Sorafenib]
IC50 (Huh7 HCC cell line): 22.9 µM | combinational effect with Disulfiram-PLGA (CI-isobologram) (Huh7 HCC cell line): very significant synergistic | sensitivity of cells at hypoxic condition (Huh7 HCC cell line): significantly resistant | IC50 (PLC/PRF/5 HCC cell line): 30.9 µM | combinational effect with Disulfiram-PLGA (CI-isobologram) (PLC/PRF/5 HCC cell line): very significant synergistic | sensitivity of cells at hypoxic condition (PLC/PRF/5 HCC cell line): significantly resistant | colony numbers versus control (PLC/PRF/5 cells): no significant difference | colony numbers versus control (Huh7 cells): no significant difference
